Data taken from ChEMBL document CHEMBL1201862, “PubChem BioAssay data set” (2004).
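Briefly, cells in 96-well plates were exposed to five compound concentrations for 48 h, and endpoints were estimated by linear interpolation. Abbreviation: GI50, concentration required for 50% inhibition of growth.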 Active and inactive are the calls of the source. Cut-off read from the data, not from the text of the source: active = GI50 up to about 1.1 µM and inactive = higher.

Legend:
Assay in all cases: NCI tumour cell line growth inhibition, 48 h
786-0 = system: 786-0
A498 = system: A498
A549 = system: A549
ACHN = system: ACHN
BT-549 = system: BT-549
CAKI-1 = system: CAKI-1
CCRF-CEM = system: CCRF-CEM
COLO 205 = system: COLO 205
DU-145 = system: DU-145
EKVX = system: EKVX
HCT-116 = system: HCT-116
HCT-15 = system: HCT-15
HL-60 = system: HL-60
HOP-62 = system: HOP-62
HOP-92 = system: HOP-92
HT-29 = system: HT-29
Hs-578T = system: Hs-578T
IGROV-1 = system: IGROV-1
K562 = system: K562
KM12 = system: KM12
LOX IMVI = system: LOX IMVI
M14 = system: M14
MCF7 = system: MCF7
MDA-MB-231 = system: MDA-MB-231
MDA-MB-435 = system: MDA-MB-435
MDA-N = system: MDA-N
MOLT-4 = system: MOLT-4
Malme-3M = system: Malme-3M
NCI-H226 = system: NCI-H226
NCI-H460 = system: NCI-H460
NCI-H522 = system: NCI-H522
NCI/ADR-RES = system: NCI/ADR-RES
OVCAR-3 = system: OVCAR-3
OVCAR-4 = system: OVCAR-4
OVCAR-5 = system: OVCAR-5
OVCAR-8 = system: OVCAR-8
PC-3 = system: PC-3
RPMI-8226 = system: RPMI-8226
RXF 393 = system: RXF 393
SF-268 = system: SF-268
SF-295 = system: SF-295
SF-539 = system: SF-539
SK-MEL-28 = system: SK-MEL-28
SK-MEL-2 = system: SK-MEL-2
SK-MEL-5 = system: SK-MEL-5
SK-OV-3 = system: SK-OV-3
SN12C = system: SN12C
SNB-19 = system: SNB-19
SNB-75 = system: SNB-75
SR = system: SR
SW-620 = system: SW-620
T47D = system: T47D
TK-10 = system: TK-10
U-251 = system: U-251
UACC-257 = system: UACC-257
UACC-62 = system: UACC-62
UO-31 = system: UO-31
NCI-H23 = system: NCI-H23

Measured: GI50

O=C1Nc2ccccc2S/C1=C\c1cccc(C(F)(F)F)c1
inactive: 786-0 > 100 µM | A498 > 100 µM | A549 > 100 µM | ACHN > 100 µM | BT-549 > 100 µM | CAKI-1 3.01 µM | CCRF-CEM > 100 µM | COLO 205 > 100 µM | DU-145 > 100 µM | EKVX > 100 µM | HCT-116 > 100 µM | HL-60 5.01 µM | HOP-62 > 100 µM | HOP-92 60.1 µM | HT-29 > 100 µM | Hs-578T > 100 µM | IGROV-1 > 100 µM | K562 > 100 µM | KM12 > 100 µM | LOX IMVI > 100 µM | M14 > 100 µM | MDA-MB-231 7.85 µM | MDA-MB-435 > 100 µM | MDA-N > 100 µM | MOLT-4 > 100 µM | Malme-3M > 100 µM | NCI-H226 > 100 µM | NCI-H460 > 100 µM | NCI-H522 > 100 µM | NCI/ADR-RES > 100 µM | OVCAR-3 > 100 µM | OVCAR-4 > 100 µM | OVCAR-5 > 100 µM | OVCAR-8 > 100 µM | PC-3 > 100 µM | RPMI-8226 > 100 µM | RXF 393 > 100 µM | SF-268 > 100 µM | SF-295 > 100 µM | SF-539 > 100 µM | SK-MEL-28 > 100 µM | SK-MEL-2 > 100 µM | SK-MEL-5 > 100 µM | SK-OV-3 > 100 µM | SN12C > 100 µM | SNB-19 > 100 µM | SNB-75 > 100 µM | SR > 100 µM | SW-620 > 100 µM | T47D 82.4 µM | TK-10 > 100 µM | U-251 > 100 µM | UACC-257 > 100 µM | UACC-62 > 100 µM | UO-31 > 100 µM
active: MCF7 0.467 µM
> 100 µM: HCT-15

CC(C)(C)OC(=O)CCC1NC(=O)[C@@H]2Cc3c([nH]c4ccccc34)C(c3ccccc3)N2C1=O (stereo partly specified)
33 µM: HCT-15
inactive: 786-0 30.6 µM | A498 36.2 µM | A549 31.8 µM | ACHN 27.9 µM | BT-549 28.6 µM | CAKI-1 29.2 µM | COLO 205 20.9 µM | DU-145 43.7 µM | EKVX 36.6 µM | HCT-116 19.4 µM | HL-60 21.4 µM | HOP-62 24.2 µM | HOP-92 27.9 µM | HT-29 22.8 µM | Hs-578T 16.7 µM | IGROV-1 31.3 µM | K562 > 100 µM | KM12 24.9 µM | LOX IMVI 18.8 µM | M14 25.9 µM | MCF7 32.4 µM | MDA-MB-231 19.7 µM | MDA-MB-435 21.7 µM | MDA-N 19.8 µM | MOLT-4 > 100 µM | Malme-3M 16.4 µM | NCI-H226 30.4 µM | NCI-H23 29.1 µM | NCI-H522 25.2 µM | NCI/ADR-RES 35.5 µM | OVCAR-3 21.6 µM | OVCAR-4 32.7 µM | OVCAR-5 25.1 µM | OVCAR-8 37.2 µM | PC-3 19.3 µM | RPMI-8226 36.9 µM | RXF 393 18.2 µM | SF-268 24.7 µM | SF-295 19.7 µM | SK-MEL-28 44.5 µM | SK-MEL-2 21 µM | SK-MEL-5 17.6 µM | SK-OV-3 29.6 µM | SN12C 23.7 µM | SNB-19 34.3 µM | SR > 100 µM | SW-620 41.7 µM | T47D 27.8 µM | TK-10 33.7 µM | U-251 18.2 µM | UACC-257 21.7 µM | UACC-62 17.7 µM | UO-31 29.4 µM
